Converted amounts (≈) assume the structure as drawn. The source made the active and inactive calls. No cut-off for these calls is given here.
Tests used:
Assay type in all cases: functional
Pseudomonas aeruginosa = test: Antimicrobial activity against Pseudomonas aeruginosa MTCC 741 assessed as growth inhibition after 24 hr by two-fold serial dilution method; details: MTCC 741, 24 h
Bacillus subtilis = test: Antimicrobial activity against Bacillus subtilis MTCC 121 assessed as growth inhibition after 24 hr by two-fold serial dilution method; details: MTCC 121, 24 h
Candida albicans = test: Antimicrobial activity against Candida albicans assessed as growth inhibition by two-fold serial dilution method
Cryptococcus neoformans = test: Antimicrobial activity against Cryptococcus neoformans assessed as growth inhibition after 72-96 hr by two-fold serial dilution method
Staphylococcus aureus = test: Antimicrobial activity against Staphylococcus aureus MTCC 96 assessed as growth inhibition after 24 hr by two-fold serial dilution method
Klebsiella pneumoniae = test: Antimicrobial activity against Klebsiella pneumoniae MTCC 2272 assessed as growth inhibition after 24 hr by two-fold serial dilution method; details: MTCC 2272, 24 h
Aspergillus flavus = test: Antimicrobial activity against Aspergillus flavus assessed as growth inhibition after 72-96 hr by two-fold serial dilution method
Fusarium oxysporum = test: Antimicrobial activity against Fusarium oxysporum assessed as growth inhibition after 72-96 hr by two-fold serial dilution method
Aspergillus niger = test: Antimicrobial activity against Aspergillus niger assessed as growth inhibition after 72-96 hr by two-fold serial dilution method
Escherichia coli = test: Antimicrobial activity against Escherichia coli MTCC 443 assessed as growth inhibition after 24 hr by two-fold serial dilution method; details: MTCC 443, 24 h

Compound	MIC (Pseudomonas aeruginosa) [µg/mL]	MIC (Bacillus subtilis) [µg/mL]	MIC (Candida albicans) [µg/mL]	MIC (Cryptococcus neoformans)	MIC (Staphylococcus aureus)	MIC (Klebsiella pneumoniae) [µg/mL]	MIC (Aspergillus flavus) [µg/mL]	MIC (Fusarium oxysporum)	MIC (Aspergillus niger) [µg/mL]	MIC (Staphylococcus aureus; MTCC 96, 24 h) [µg/mL]	MIC (Escherichia coli) [µg/mL]
CC1/C(=N/Nc2nc3ccccc3s2)CC(c2ccc(F)cc2)NC1c1ccc(F)cc1 (stereo not drawn)	200 (≈ 446 µM)	100 (≈ 223 µM)	100 (≈ 223 µM)	200 µg/mL (≈ 446 µM)	inactive	25 (≈ 55.7 µM)	100 (≈ 223 µM)	100 µg/mL (≈ 223 µM)	100 (≈ 223 µM)		
CN[C@@H]1[C@H](O[C@H]2[C@H](O[C@H]3[C@H](O)[C@@H](O)[C@H](N=C(N)N)[C@@H](O)[C@@H]3N=C(N)N)O[C@@H](C)[C@]2(O)C=O)O[C@@H](CO)[C@H](O)[C@H]1O [STREPTOMYCIN]	50 (≈ 86 µM)	12.5 (≈ 21.5 µM)				20 (≈ 34.4 µM)				50 (≈ 86 µM)	50 (≈ 86 µM)
CC1/C(=N/Nc2nc3ccccc3s2)CC(c2ccc(Cl)cc2)NC1c1ccc(Cl)cc1 (stereo not drawn)	100 (≈ 208 µM)	50 (≈ 104 µM)		200 µg/mL (≈ 415 µM)	inactive	50 (≈ 104 µM)	50 (≈ 104 µM)	200 µg/mL (≈ 415 µM)	100 (≈ 208 µM)		25 (≈ 51.9 µM)
CC1/C(=N/Nc2nc3ccccc3s2)CC(c2ccccc2)NC1c1ccccc1 (stereo not drawn)	200 (≈ 485 µM)	100 (≈ 242 µM)	100 (≈ 242 µM)	200 µg/mL (≈ 485 µM)		100 (≈ 242 µM)		200 µg/mL (≈ 485 µM)	100 (≈ 242 µM)	200 (≈ 485 µM)	25 (≈ 60.6 µM)
CC1/C(=N/Nc2nc3ccccc3s2)CC(c2ccc(Br)cc2)NC1c1ccc(Br)cc1 (stereo not drawn)	200 (≈ 351 µM)	200 (≈ 351 µM)	200 (≈ 351 µM)	100 µg/mL (≈ 175 µM)	inactive	100 (≈ 175 µM)	200 (≈ 351 µM)	50 µg/mL (≈ 87.7 µM)	200 (≈ 351 µM)		200 (≈ 351 µM)
c1ccc(C2CC(=NNc3nc4ccccc4s3)CC(c3ccccc3)N2)cc1 (stereo not drawn)	200 (≈ 502 µM)	100 (≈ 251 µM)	100 (≈ 251 µM)		inactive	200 (≈ 502 µM)	200 (≈ 502 µM)	200 µg/mL (≈ 502 µM)	200 (≈ 502 µM)		200 (≈ 502 µM)
C[C@@H]1[C@H](O)[C@@H](C)/C=C/C=C/C=C/C=C/C=C/C=C/C=C/[C@H](O[C@@H]2O[C@H](C)[C@@H](O)[C@H](N)[C@@H]2O)C[C@@H]2O[C@](O)(C[C@@H](O)C[C@@H](O)[C@H](O)CC[C@@H](O)C[C@@H](O)CC(=O)O[C@H]1C)C[C@H](O)[C@H]2C(=O)O [AMPHOTERICIN B]			25 (≈ 27.1 µM)	25 µg/mL (≈ 27.1 µM)			50 (≈ 54.1 µM)	25 µg/mL (≈ 27.1 µM)	50 (≈ 54.1 µM)		
CC1/C(=N/Nc2nc3ccccc3s2)CC(c2ccccc2Cl)NC1c1ccccc1Cl (stereo not drawn)	100 (≈ 208 µM)	100 (≈ 208 µM)	200 (≈ 415 µM)	100 µg/mL (≈ 208 µM)	inactive	100 (≈ 208 µM)	200 (≈ 415 µM)	100 µg/mL (≈ 208 µM)	50 (≈ 104 µM)		200 (≈ 415 µM)
CCC1/C(=N/Nc2nc3ccccc3s2)CC(c2ccccc2)NC1c1ccccc1 (stereo not drawn)	100 (≈ 234 µM)	200 (≈ 469 µM)	200 (≈ 469 µM)	200 µg/mL (≈ 469 µM)	inactive	50 (≈ 117 µM)	100 (≈ 234 µM)	100 µg/mL (≈ 234 µM)			
COc1ccc(C2C/C(=N\Nc3nc4ccccc4s3)C(C)C(c3ccc(OC)cc3)N2)cc1 (stereo not drawn)		200 (≈ 423 µM)	100 (≈ 212 µM)	inactive		50 (≈ 106 µM)	100 (≈ 212 µM)	inactive	200 (≈ 423 µM)	100 (≈ 212 µM)	100 (≈ 212 µM)

Source: ChEMBL document CHEMBL3044880, “Synthesis, NMR spectral studies and antimicrobial evaluation of some 2-(benzothiazol-2-yl)-1-(alkyl-2r,6c-diarylpiperidin-4-ylidine)hydrazine derivatives” (2013)
